Assay results: ChEMBL document CHEMBL4130444, “1,4-Naphthoquinones as inhibitors of Itch, a HECT domain-E3 ligase, and tumor growth suppressors in multiple myeloma” (Eur J Med Chem, 2017)

What was measured:
HCT-116 = test: Antiproliferative activity against human HCT116 cells incubated for 48 hrs by SRB assay; type: functional; details: HCT-116, 48 h
MDA-MB-231 = test: Antiproliferative activity against human MDA-MB-231 cells incubated for 48 hrs by SRB assay; type: functional; details: MDA-MB-231, 48 h

SMILES: O=C(Nc1cnccn1)c1ccc(CNC2=C(Cl)C(=O)c3ccccc3C2=O)cc1
- GI50 (HCT-116): 5.5 µM
- GI50 (MDA-MB-231): 9.2 µM

SMILES: O=C(Nc1ccc2cn[nH]c2c1)c1ccc(CNC2=C(Cl)C(=O)c3ccccc3C2=O)cc1
- GI50 (HCT-116): > 10 µM
- GI50 (MDA-MB-231): > 10 µM
